In publication PMC7915732, “Screening of Yeast Display Libraries of Enzymatically Treated Peptides to Discover Macrocyclic Peptide Ligands” (International Journal of Molecular Sciences, 2021):

Legend:
[1] = biological target: T1, WW domains of YAP (WW-YAP) (Homo sapiens, UniProt P46937); assay: Static binding assay on peptide-Toyopearl resin, Langmuir isotherm, WW-YAP; settings: binding capacity (mg protein/mL resin), PBS pH 7.4, 1 h room temperature, Langmuir fit, average of three independent replicates ± one standard error
T1 construct: which affords the expression of the WW domains of YAP (AAs 165–271); made in house; host or cells: Rosetta E. coli
T1 sequence (P46937 165-271): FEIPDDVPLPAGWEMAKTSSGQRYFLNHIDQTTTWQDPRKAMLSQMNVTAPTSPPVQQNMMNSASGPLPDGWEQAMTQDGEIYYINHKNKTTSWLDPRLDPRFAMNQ
Description: (§1) The known WW-binding peptide sequence [sequence] […] Protein adsorption isotherms were generated by incubating the peptide-functionalized resin with soluble N-terminal YAP or WW-YAP (20 μg/mL–3 mg/mL).
(§2) The supernatants were collected and analyzed by UV spectrophotometry at 280 nm to measure the amount of unbound protein. The amount of protein adsorbed on the resin was determined via mass balance. The KD describing the binding affinity of the soluble protein to the peptide-functionalized resin was determined by fitting the adsorption data to a Langmuir isotherm:(2) q=qmax[C]/KD+[C] where q is the amount of protein adsorbed on the resin (mg protein/mL resin), [C] is the unbound concentration of protein at equilibrium (mg protein/mL solution), qmax is the maximum protein binding capacity (mg protein/mL resin), and KD is the dissociation constant (mg protein/mL solution). Equation (2) was independently fit to the data obtained from triplicate adsorption studies, and the fitted values of KD and qmax were averaged across the repeats.

N-terminal YAP (N-YAP) = biological target: T2, N-terminal YAP (N-YAP) (Homo sapiens, UniProt P46937); assay: Static binding assay on peptide-Toyopearl resin, Langmuir isotherm, N-terminal YAP; settings: binding capacity (mg protein/mL resin), PBS pH 7.4, 1 h room temperature, Langmuir fit, average of three independent replicates ± one standard error
T2 construct: which affords the expression of N-terminal YAP (AAs 1–291); made in house; host or cells: Rosetta E. coli
T2 sequence (P46937 1-291): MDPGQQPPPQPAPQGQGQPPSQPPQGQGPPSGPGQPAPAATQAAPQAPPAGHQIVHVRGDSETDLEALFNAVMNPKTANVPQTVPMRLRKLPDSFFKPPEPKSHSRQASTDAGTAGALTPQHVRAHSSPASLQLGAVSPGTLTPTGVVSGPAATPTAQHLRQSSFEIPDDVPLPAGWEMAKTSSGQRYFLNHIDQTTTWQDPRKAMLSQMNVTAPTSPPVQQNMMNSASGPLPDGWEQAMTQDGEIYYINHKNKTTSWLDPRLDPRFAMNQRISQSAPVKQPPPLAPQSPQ
Description: as §1, §2

## RYSPPPPYSSHS [PTCH peptide]
[1]
  Qmax WW-YAP (resin): 8.3 ± 0.27 mg/mL
N-terminal YAP (N-YAP)
  Qmax N-YAP (resin): 4.11 ± 0.12 mg/mL
